In US20070092474A1, “Carnitine salt, preliposome which contains it and dermocosmetic formula for topical use based upon said carnitine salt” (priority 2003, published 2007):
Values joined by “and” are separate entries in the source; they are usually repeats but may differ in a detail not shown here. Identical values can stand only once.

Legend:
[1] = tested on: skin blemishes deriving from cellulite and from localised adiposity; assay: Overall evaluation of the efficiency of the cosmetic product adjuvating the reduction of skin blemishes; format: in vivo, female volunteers; details: versus just carnitine (II) and just hydroxy citric acid (III) in the same tests
Method: (§1) A dermatological test was carried out on 25 female volunteers between 18 and 65 years of age, with the backing of the Department of Physiological and Pharmacological Sciences of the university of Pavia. The investigation aimed to check the modification of three anatomical-physiological parameters, qualifying the unaesthetic-functional aspect connected to the manifestation of so-called cellulite and subcutaneous hypertriglyceridaemia: measurement of the skin folds, measurement of the circumference of the thighs, thermographic skin measurement.
(§2) The test stretched out over 60 days with the continual daily application of the aforementioned preparation of cosmetic gel. The measurements were carried out after 15, 30 and 60 days. The detail of the test protocol and of the results obtained is shown hereafter.
Evaluation of the Efficiency of a Cosmetic Product Adjuvating the Reduction of the Skin Blemishes Deriving from Cellulite and from Localised Adiposity.
The present experimentation allows it to be evaluated whether the cosmetic product being studied carries out an action adjuvating the reduction of the skin blemishes deriving from cellulite and from localised adiposity. […]

[2] = tested on: skin blemishes caused by cellulite and localised adiposity; assay: Liquid crystal contact thermography of the thighs, clinical score of cellulite stage; format: in vivo, female volunteers; design: key: 9: IV SERIOUS; 8: IV AVERAGE; 7: IV INITIAL; 6: III SERIOUS; 5: III AVERAGE; 4: III INITIAL; 3: II SERIOUS; 2: II AVERAGE; 1: II INITIAL; details: clinical score per volunteer, MEDIA = mean
Method: as §1, §2
25 female volunteers aged between 18 and 65, with the presence of skin blemishes caused by cellulite and localised adiposity, were selected according to the following criteria: good general state of health, absence of skin pathologies, not being under medication, commitment not to vary the normal daily routine, no medical history of atopy.
The samples were tested by uniformly applying them on “Glute SX Glute DJ (Femoris Posto SX Femoris Posto DX Femoris Ant. SX Femoris Ant. DX” every day at least once per day for the entire duration of the test.
At the time of inclusion in the study and during the subsequent checks after 15 days (T15), after 30 days (T30) and after 60 days (T60) of treatment the following instrumental measurements were taken: • plicometry (through a plicometer) • thigh circumference (through a measuring tape broken into millimetres) • contact thermography (through liquid crystal thermographic plates).
For its part, thermography allows the extension and the gravity of the microcirculatory skin damage and, consequently, the subcutaneous damage, to be evaluated based upon the regional skin temperature variations. Such temperature variations reveal the presence of subschemic areas (cold areas, due to regional hypothermia) or of phenomena of capillary-venous stasis (hot areas). The diagnostic properties of thermography are relative to the recognition of maldistribution of microcirculation. In particular, “liquid crystal contact thermography” was used, in which the property of cholesteric liquid crystals (of which the plates are made up) of modifying their spatial arrangement according to the temperature is exploited; each spatial modification corresponds to a different refraction of the light rays which thus assume different colours according to the incidence of the light on the faces of the cholesteric microcrystals: in practice, when the thermographic plates are placed upon the skin of the zone to be investigated, these assume different colourations according to the skin temperature. Conventionally, the thermographic images observed during the course of the different stages of evolution of the Edematous fibrosclerotic panniculopathy from stasis of the lower limbs can be classified in four, or more, thermographic stages; the latter approximately correspond to the gravity of the four istologic stages in which the moments of evolution of the panniculosis are divided.

Substance: carnitine hydroxycitrate [carnitine hydroxy citrate]
- Comparison of the salt with the two reactants by themselves [1]: provides the best results
- LEFT THIGH THERMOGRAPHY 1/3 T0 [2]: 5 (9×) and 4 (3×) and 7 (4×) and 2 and 6 (7×) and 3
- LEFT THIGH THERMOGRAPHY 1/3 T0 ([2]; mean): 5.3
- LEFT THIGH THERMOGRAPHY 1/3 T15 [2]: 5 (9×) and 4 (5×) and 3 (3×) and 7 (2×) and 2 and 6 (5×)
- LEFT THIGH THERMOGRAPHY 1/3 T15 ([2]; mean): 4.8
- LEFT THIGH THERMOGRAPHY 1/3 T30 [2]: 2 (7×) and 4 (10×) and 3 (2×) and 6 (3×) and 5 (3×)
- LEFT THIGH THERMOGRAPHY 1/3 T30 ([2]; mean): 3.7
- LEFT THIGH THERMOGRAPHY 1/3 T60 [2]: 2 (11×) and 3 (7×) and 4 (4×) and 5 (2×) and 6
- LEFT THIGH THERMOGRAPHY 1/3 T60 ([2]; mean): 3.0
- LEFT THIGH THERMOGRAPHY 2/3 T0 [2]: 4 (5×) and 5 (10×) and 3 (3×) and 7 and 2 and 6 (5×)
- LEFT THIGH THERMOGRAPHY 2/3 T0 ([2]; mean): 4.7
- LEFT THIGH THERMOGRAPHY 2/3 T15 [2]: 3 (7×) and 4 (11×) and 5 (3×) and 6 (3×) and 2
- LEFT THIGH THERMOGRAPHY 2/3 T15 ([2]; mean): 4.0
- LEFT THIGH THERMOGRAPHY 2/3 T30 [2]: 2 (6×) and 3 (12×) and 4 (6×) and 5
- LEFT THIGH THERMOGRAPHY 2/3 T30 ([2]; mean): 3.1
- LEFT THIGH THERMOGRAPHY 2/3 T60 [2]: 2 (9×) and 3 (11×) and 4 (4×) and 1
- LEFT THIGH THERMOGRAPHY 2/3 T60 ([2]; mean): 2.7
- LEFT THIGH THERMOGRAPHY 3/3 T0 [2]: 3 (3×) and 5 (3×) and 4 (16×) and 2 (2×) and 7
- LEFT THIGH THERMOGRAPHY 3/3 T0 ([2]; mean): 4.0
- LEFT THIGH THERMOGRAPHY 3/3 T15 [2]: 3 (7×) and 4 (11×) and 5 (3×) and 2 (4×)
- LEFT THIGH THERMOGRAPHY 3/3 T15 ([2]; mean): 3.5
- LEFT THIGH THERMOGRAPHY 3/3 T30 [2]: 2 (7×) and 3 (11×) and 4 (5×) and 1 (2×)
- LEFT THIGH THERMOGRAPHY 3/3 T30 ([2]; mean): 2.8
- LEFT THIGH THERMOGRAPHY 3/3 T60 [2]: 1 (3×) and 3 (11×) and 2 (10×) and 4
- LEFT THIGH THERMOGRAPHY 3/3 T60 ([2]; mean): 2.4
- RIGHT THIGH THERMOGRAPHY 1/3 T0 [2]: 5 (10×) and 4 (3×) and 7 (3×) and 3 (2×) and 6 (6×) and 8
- RIGHT THIGH THERMOGRAPHY 1/3 T0 ([2]; mean): 5.3
- RIGHT THIGH THERMOGRAPHY 1/3 T15 [2]: 5 (9×) and 4 (6×) and 7 (3×) and 3 (2×) and 6 (5×)
- RIGHT THIGH THERMOGRAPHY 1/3 T15 ([2]; mean): 5.0
- RIGHT THIGH THERMOGRAPHY 1/3 T30 [2]: 2 (7×) and 4 (9×) and 3 (2×) and 5 (4×) and 6 (2×) and 7
- RIGHT THIGH THERMOGRAPHY 1/3 T30 ([2]; mean): 3.8
- RIGHT THIGH THERMOGRAPHY 1/3 T60 [2]: 2 (11×) and 3 (6×) and 4 (5×) and 5 (2×) and 6
- RIGHT THIGH THERMOGRAPHY 1/3 T60 ([2]; mean): 3.0
- RIGHT THIGH THERMOGRAPHY 2/3 T0 [2]: 4 (6×) and 5 (11×) and 7 and 3 (3×) and 6 (4×)
- RIGHT THIGH THERMOGRAPHY 2/3 T0 ([2]; mean): 4.8
- RIGHT THIGH THERMOGRAPHY 2/3 T15 [2]: 3 (5×) and 4 (12×) and 5 (4×) and 6 (3×) and 2
- RIGHT THIGH THERMOGRAPHY 2/3 T15 ([2]; mean): 4.1
- RIGHT THIGH THERMOGRAPHY 2/3 T30 [2]: 2 (4×) and 3 (13×) and 4 (7×) and 5
- RIGHT THIGH THERMOGRAPHY 2/3 T30 ([2]; mean): 3.2
- RIGHT THIGH THERMOGRAPHY 2/3 T60 [2]: 2 (8×) and 3 (12×) and 4 (4×) and 1
- RIGHT THIGH THERMOGRAPHY 2/3 T60 ([2]; mean): 2.8
- RIGHT THIGH THERMOGRAPHY 3/3 T0 [2]: 3 (4×) and 5 (4×) and 4 (15×) and 2 and 7
- RIGHT THIGH THERMOGRAPHY 3/3 T0 ([2]; mean): 4.0
- RIGHT THIGH THERMOGRAPHY 3/3 T15 [2]: 3 (7×) and 4 (11×) and 5 (3×) and 2 (4×)
- RIGHT THIGH THERMOGRAPHY 3/3 T15 ([2]; mean): 3.5
- RIGHT THIGH THERMOGRAPHY 3/3 T30 [2]: 2 (7×) and 3 (10×) and 4 (7×) and 1
- RIGHT THIGH THERMOGRAPHY 3/3 T30 ([2]; mean): 2.9
- RIGHT THIGH THERMOGRAPHY 3/3 T60 [2]: 1 (3×) and 3 (12×) and 2 (9×) and 4
- RIGHT THIGH THERMOGRAPHY 3/3 T60 ([2]; mean): 2.4
